Legend:
[1] = target: T1, Peroxisome proliferator-activated receptor alpha (Homo sapiens, UniProt Q07869); assay: Agonist activity at GAL4-tagged PPARalpha ligand-binding domain (unknown origin) expressed in HEK293T cells incubated for 16 to 19 hrs by beta-lactamase reporter gene assay; format: cell-based, HEK-293T
T1 sequence (Q07869 whole entry): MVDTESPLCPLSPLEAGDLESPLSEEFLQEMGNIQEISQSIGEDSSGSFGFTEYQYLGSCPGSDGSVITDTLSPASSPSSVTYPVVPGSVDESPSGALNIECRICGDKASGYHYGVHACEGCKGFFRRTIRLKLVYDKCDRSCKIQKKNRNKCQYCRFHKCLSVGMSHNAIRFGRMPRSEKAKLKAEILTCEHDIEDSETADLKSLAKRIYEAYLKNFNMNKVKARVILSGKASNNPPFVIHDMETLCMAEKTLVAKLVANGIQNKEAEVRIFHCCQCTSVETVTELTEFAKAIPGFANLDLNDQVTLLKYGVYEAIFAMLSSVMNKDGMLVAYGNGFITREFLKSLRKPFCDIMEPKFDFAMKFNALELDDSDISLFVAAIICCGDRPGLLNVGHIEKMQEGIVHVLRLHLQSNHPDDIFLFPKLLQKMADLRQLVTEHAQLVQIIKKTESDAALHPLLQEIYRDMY

[2] = target: T2, Peroxisome proliferator-activated receptor delta (Homo sapiens, UniProt Q03181); assay: Agonist activity at GAL4-tagged PPARdelta (unknown origin)
T2 sequence (Q03181 whole entry): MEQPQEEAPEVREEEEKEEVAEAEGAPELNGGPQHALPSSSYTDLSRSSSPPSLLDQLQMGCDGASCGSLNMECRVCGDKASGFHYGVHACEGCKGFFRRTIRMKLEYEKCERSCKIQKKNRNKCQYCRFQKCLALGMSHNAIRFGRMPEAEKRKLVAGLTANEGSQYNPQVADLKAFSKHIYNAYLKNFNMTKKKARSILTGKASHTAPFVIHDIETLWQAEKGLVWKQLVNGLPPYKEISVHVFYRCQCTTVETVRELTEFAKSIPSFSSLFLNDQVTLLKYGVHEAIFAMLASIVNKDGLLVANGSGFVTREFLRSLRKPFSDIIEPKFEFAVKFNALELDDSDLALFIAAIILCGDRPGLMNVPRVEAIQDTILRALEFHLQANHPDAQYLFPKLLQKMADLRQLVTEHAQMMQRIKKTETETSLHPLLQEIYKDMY

[3] = target: T3, Peroxisome proliferator-activated receptor gamma (Homo sapiens, UniProt P37231); assay: Agonist activity at GAL4-tagged PPARgamma (unknown origin)
T3 sequence (P37231 whole entry): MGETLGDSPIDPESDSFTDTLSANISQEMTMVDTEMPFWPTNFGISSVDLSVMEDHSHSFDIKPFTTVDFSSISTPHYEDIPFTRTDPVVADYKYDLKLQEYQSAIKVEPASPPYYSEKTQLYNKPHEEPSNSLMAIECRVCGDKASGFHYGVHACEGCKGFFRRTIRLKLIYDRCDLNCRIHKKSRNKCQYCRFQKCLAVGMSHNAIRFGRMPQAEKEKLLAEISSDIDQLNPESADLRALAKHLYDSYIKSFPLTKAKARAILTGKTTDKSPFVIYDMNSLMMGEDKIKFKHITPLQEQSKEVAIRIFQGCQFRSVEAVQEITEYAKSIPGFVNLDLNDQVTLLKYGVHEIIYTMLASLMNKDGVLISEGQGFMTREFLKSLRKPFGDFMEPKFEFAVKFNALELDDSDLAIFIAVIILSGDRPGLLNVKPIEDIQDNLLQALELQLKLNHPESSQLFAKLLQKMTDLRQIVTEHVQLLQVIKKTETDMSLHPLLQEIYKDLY

Row | SMILES | EC50 [1] [µM] | EC50 [2] [µM] | EC50 [3] [µM]
1 | Cc1nc(-c2ccc(Cl)cc2)sc1C(=O)N[C@H]1CCCN(c2cccc(C(=O)O)c2)C1 | – | 13 | 6.6
2 | Cc1ccc(-c2nc(C)c(C(=O)N[C@H]3CCCN(c4cccc(C(=O)O)c4)C3)s2)cc1 | – | 11 | 3.1
3 | Cc1c(C(=O)O)cccc1-c1ccc(/C=C2/SC(=O)N(CC(=O)Nc3ccc(F)cc3)C2=O)o1 | 0.00016 | – | –

Next, values leading:

Row | EC50 [1] [µM] | EC50 [2] [µM] | EC50 [3] [µM] | SMILES
4 | 0.0011 | – | – | CCCCCOC(=O)c1ccc(NC(=O)c2cccc(NC(=O)c3ccccc3C(=O)O)c2)cc1
5 | 0.0121 | – | – | CCOC(=O)C1=C(Nc2ccc(OCC)cc2)S/C(=C/c2ccc(OCC(=O)O)c(OC)c2)C1=O
6 | 0.004 | 25 | 25 | Cc1nc(-c2cccc(C(F)(F)F)c2)sc1CNCc1ccc(OC(C)(C)C(=O)O)cc1
7 | – | 10 | 1.7 | CC[C@@H](Oc1cccc(CN(CCCOc2ccc(OC)cc2)c2nc3ccccc3o2)c1)C(=O)O [PEMAFIBRATE]

— ChEMBL document CHEMBL3352104, “Biological evaluation and structural insights for design of subtype-selective peroxisome proliferator activated receptor-α (PPAR-α) agonists” (Bioorg Med Chem Lett, 2015)
